Measurements published in patent US4789683A, “Benzamido-derivatives” (priority 1981, dated 1988).
Read-outs that look alike come from different tables or passages of the source.

Experiments:
[1] = target: T1, DA receptors in the brain (Rattus norvegicus, UniProt P61169); test: Block of apomorphine-induced stereotypies in the rat (0-3 scale); assay type: in vivo, Male Sprague-Dawley rats
T1 construct: from tissue; host or cells: brain of live male Sprague-Dawley rats (in vivo behavioural test)
Method: There are presently several techniques available to study DA receptor blockage in the brain in vico. One method is based on the ability of antipsychotic drugs to block the behavioural effects induced by the DA agonist apomorphine in the rat.
Directly after injection, the animals were placed in the cages, one in each cage. Scoring of the stereotypies were performed by two separate methods. […] The strength of the stereotype was scored on a 0-3 scale as follows:
3 Continous sniffing. Chewing, biting and licking.
In the second system the number of animals displaying hyperactivity caused by apomorphine were scored. Each group consisted of 6-8 animals. Saline controls were always run simultaneously. […] The ED50 were calculated from log dose-response curves by the method of least squares from 4-6 dose levels with 6-8 animals per dose level.

[2] = test system: DA receptors in the brain; test: Block of apomorphine-induced hyperactivity in the rat; assay type: in vivo, Male Sprague-Dawley rats; conditions: for Block of apomorphine ED50, hyperactivity: i.p., 60 min prior to apomorphine HCl 1 mg/kg s.c.; for potency to block apomorphine, ED50 Hyperactivity: p.o., rat
From the text: There are presently several techniques available to study DA receptor blockage in the brain in vico. One method is based on the ability of antipsychotic drugs to block the behavioural effects induced by the DA agonist apomorphine in the rat. […] The stereotypies (chewing, […], biting) appear mainly to be induced via activation of DA receptors linked to the neostriatal DA system (J. Psychiat. […] Directly after injection, the animals were placed in the cages, one in each cage. Scoring of the stereotypies were performed by two separate methods. […] The strength of the stereotype was scored on a 0-3 scale as follows: In the second system the number of animals displaying hyperactivity caused by apomorphine were scored. Each group consisted of 6-8 animals. Saline controls were always run simultaneously.

[3] = experimental animals; cited from earlier work
[4] = in vivo; cited from earlier work
[5] = rat, ip, 60 min prior to apomorphine HCl 1 mg/kg s.c., read-out: Block of apomorphine ED50, stereotypes
[6] = po, rat, read-out: potency to block apomorphine, ED50 Stereotypies

T1 sequence (P61169 whole entry): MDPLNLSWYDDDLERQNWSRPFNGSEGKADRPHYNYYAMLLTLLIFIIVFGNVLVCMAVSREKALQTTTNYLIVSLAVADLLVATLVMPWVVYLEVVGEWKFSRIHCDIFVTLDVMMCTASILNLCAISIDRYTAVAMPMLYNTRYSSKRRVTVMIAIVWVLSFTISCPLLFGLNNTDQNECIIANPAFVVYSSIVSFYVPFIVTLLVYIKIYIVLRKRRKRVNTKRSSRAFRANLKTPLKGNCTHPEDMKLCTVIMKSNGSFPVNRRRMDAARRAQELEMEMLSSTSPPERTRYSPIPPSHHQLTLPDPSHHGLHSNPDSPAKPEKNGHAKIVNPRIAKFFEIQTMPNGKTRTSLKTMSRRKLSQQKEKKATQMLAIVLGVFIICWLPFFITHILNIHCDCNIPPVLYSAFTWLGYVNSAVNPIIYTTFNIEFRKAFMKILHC

ED50 [1, 5]	ED50 [1, 6]	Structure (SMILES)	Block of apomorphine ED50, hyperactivity [2]	potency to block apomorphine, ED50 Hyperactivity [2]	further results
0.75 µmol/kg		CCCN1CCCC1CNC(=O)c1c(OC)ccc(Br)c1O (single isomer, unassigned) [FLA 889 (-)]	0.27 µmol/kg		
10 µmol/kg		CCN1CCCC1CNC(=O)c1c(O)ccc(Br)c1OC (stereo not drawn) [FLA 908]	1.1 µmol/kg		
0.53 µmol/kg		CCN1CCCC1CNC(=O)c1c(OC)ccc(Br)c1OC(C)=O (stereo not drawn) [FLA 903]			
3.4 µmol/kg		CCOc1ccc(Br)c(O)c1C(=O)NCC1CCCN1CC (stereo not drawn) [FLA 901]	1.1 µmol/kg		

Continued, compound first:

Structure (SMILES)	ED50 [1, 5]	ED50 [1, 6]	Block of apomorphine ED50, hyperactivity [2]	potency to block apomorphine, ED50 Hyperactivity [2]	further results
CCN1CCCC1CNC(=O)c1cc(S(N)(=O)=O)ccc1OC (stereo not drawn) [Sulpiride, reference compound]			50 µmol/kg		catalepsy [3]: weak catalepsy; activity after oral administration ([1]; p.o., rat, apomorphine stereotypies and hyperactivity, in words): lost all activity; ED50 ([1]; rat, ip, read-out: Block of apomorphine ED50, stereotypes): 203 µmol/kg; extrapyramidal side effects [4]: weak extrapy ramidal side effects
CCN1CCCC1CNC(=O)c1c(O)c(Br)cc(Br)c1OC (single isomer, unassigned) [FLA 659 (-)]	2.3 µmol/kg	12 µmol/kg	0.40 µmol/kg	3.2 µmol/kg	
CCOc1ccc(Br)c(O)c1C(=O)NCC1CCCN1CC (single isomer, unassigned) [901(-)]		34 µmol/kg		3.0 µmol/kg	
CCN1CCCC1CNC(=O)c1c(OC)ccc(Br)c1O (stereo not drawn) [FLA 797]	1.1 µmol/kg		0.22 µmol/kg		
CCN1CCCC1CNC(=O)c1c(OC)ccc(Cl)c1O (single isomer, unassigned) [FLA 814 (-)]	1.1 µmol/kg	25 µmol/kg	0.14 µmol/kg	4.4 µmol/kg	
CCN1CCCC1CNC(=O)c1c(O)c(Cl)cc(Cl)c1OC (single isomer, unassigned) [FLA 870 (-)]			0.11 µmol/kg		Block of apomorphine ED50, stereotypes ([1]; i.p., 60 min prior to apomorphine HCl 1 mg/kg s.c.): 2.4 µmol/kg
CCN1CCCC1CNC(=O)c1c(OC)ccc(Br)c1O (single isomer, unassigned) [FLA 797 (-)]	0.38 µmol/kg	22 µmol/kg	0.035 µmol/kg	3 µmol/kg	
